Reference: patent US11066369B2, “N-(pyridin-2-yl)pyridine-sulfonamide derivatives and their use in the treatment of disease” (Novartis AG, priority 2016, dated 2021)

Columns and labels:
delF508-CFTR = biological target: T1, delF508-CFTR (Homo sapiens, UniProt P13569, DEL508-508); test: Measurement of delF508-CFTR functional activity in primary human bronchial epithelial cells (HBECs) using Multi-Transepithelial Clamp Circuit (MTECC-24) assay; assay type: cell-based; details: primary CF HBECs; for MTECC24 CFHBEC- Amax %: test compound added 24h before assay plus potentiator, relative to reference combination (2 μM corrector + 0.5 μM potentiator); for EC50: test compound added 24h before assay, in the presence of potentiator, mean of at least two replicates, read-out: MTECC24 CFHBEC- EC50
T1 construct: functional activity of the CFTR channel (Chloride ion transport) in patient derived primary human bronchial epithelial cells; host or cells: patient-derived primary human bronchial epithelial cells (delF508-CFTR)
Description: [formula] Measurement of delF508-CFTR Functional Activity in Primary Human Bronchial Epithelial Cells (HBECs) Using Multi-Transepithelial Clamp Circuit (MTECC-24) Assay
This assay measures the functional activity of the CFTR channel (Chloride ion transport) in patient derived primary human bronchial epithelial cells with forskolin activation and in the presence of the CFTR corrector/potentiator combo.
Primary human delF508-CFTR bronchial epithelial cells were purchased from Asterand and cultured according to previously established methods (Fulcher et al. (2005) Methods Mol Med 107: 183-206). Briefly, vendor supplied cells were rapidly defrosted and added to a T175 flask in 50 mL growth media (Lonza BEBM media with Lonza BEGM singlequots). Media was replaced after 24h and then cells were fed every other day until cells were 80-90% confluent, at which point cells were cryopreserved. These P1 vials were thawed at 37° C. as needed and added to T175 flasks in 50 mL growth media at 5×10^5 cells/flask. Media was replaced after 24h, and then cells were fed every other day until 80-90% confluent. Cells were lifted with 5 mL accutase at 37° C. for 5 minutes, centrifuged at 1000 rpms for 5 min (300 g), and resuspended in differentiation media (50% BEBM in DMEM, BEGM singlequots, all trans retinoic acid (5×10^−8M)). Cells were then counted and cell suspension was added to collagen coated inserts at 3×10^4 cells/insert in 0.15 mL with 0.5 mL differentiation media on the basolateral side.
Apical and basolateral media were replaced on alternate days, and following day 7 (or when confluent plus 2 days), air liquid interface was established for approximately two weeks by removal of apical media. One day prior to use on the MTECC24 system (EP-Devices, EP Design, Belgium), 0.15 mL of warmed (37° C.) PBS was added to the apical surface of the cultures and returned to humidifier (37° C., 5% CO2 incubator) for 30 min before aspirating the apical surface to remove any mucus.
Compound treatments were then prepared. Compound dilutions, typically a 10 point concentration response with 1 in 3 dilution steps, were made in 100% DMSO before dilution 1 in 1000 into differentiation medium with a final DMSO concentration of 0.1% or 0.2% for the study. Compound containing medium was then transferred into the wells of a 24 well plate at 0.5 mL per well and warmed for 30 min in a 37° C. incubator prior to transferring washed inserts into the compound containing plates. Cells were incubated in compound containing medium (basolateral only) for 24h prior to measurement in the MTECC24 system.
Following 24 hr treatment, compound dilutions were prepared again, diluted 1 in 1000 into 37° C. assay medium (F-12 Coon's modified, 20 mM HEPES pH7.4 with TRIS Base, No FCS or bicarbonate). Cells which were treated for 24h with test compound were then transferred into plates containing 0.75 mL compound treatment in assay medium (basolateral) and 0.25 mL of the compound containing assay medium was added to the apical surface. The plates were then transferred to the heated plate compartments of the MTECC24 system for 45 min prior to measurements (this can also be done in a non-CO2 37° C. humidified incubator). Basolateral temperature should not exceed 36.5° C. and apical temperature should be approximately 35.5° C.
Modulators were added sequentially as follows while the MTECC24 instrument recorded the equivalent short circuit current (Ieq):
Prior to dilution into F-12 medium the stocks are as follows:
Amiloride stock is 10 mM in H2O
Forskolin Stock is 10 mM in 100% DMSO
(S)-3-amino-6-methoxy-N-(3,3,3-trifluoro-2-hydroxy-2-methylpropyl)-5-(trifluoromethyl)picolinamide is 0.5 mM stock in 100% DMSO
INH-172 (4-[[4-Oxo-2-thioxo-3-[3-trifluoromethyl)phenyl]-5-thiazolidinylidene]methyl]benzoic acid) stock is 30 mM in 100% DMSO
The data was normalized using the median signal from wells treated with 0.1% DMSO as a baseline. […]

[1] = biological target: T2, horseradish peroxidase (HRP) tagged delF508-CFTR (Homo sapiens, UniProt P13569, DEL508-508); test: Measurement of delF508-CFTR-HRP surface expression in CFBE41o- cells; assay type: cell-based; details: delF508-CFTR-HRP surface expression, CFBE41o- cells; for EC50: read-out: DelF508-CFTR-HRP EC50; for Emax: read-out: DelF508-CFTR-HRP Amax %;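 as to DelF508-CFTR-HRP Amax %: percent efficacy relative to reference corrector lumacaftor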
T2 construct: expressed in transfected cells
Method in brief: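 CFBE41o- bronchial epithelial cells stably expressing delF508-CFTR with HRP in the fourth extracellular loop; expression induced 48h with 500 ng/mL doxycycline, then compounds added (top 10 μM, 10-point 3-fold series, ≤0.5% DMSO) for 24h at 37° C. Surface HRP measured by luminescence with cell-impermeant substrate; EC50 from logistic fit of triplicates, plate-normalized to lowest concentration; efficacy also relative to a reference corrector.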

T2 sequence (P13569 with tags, fused parts or gaps DEL508-508): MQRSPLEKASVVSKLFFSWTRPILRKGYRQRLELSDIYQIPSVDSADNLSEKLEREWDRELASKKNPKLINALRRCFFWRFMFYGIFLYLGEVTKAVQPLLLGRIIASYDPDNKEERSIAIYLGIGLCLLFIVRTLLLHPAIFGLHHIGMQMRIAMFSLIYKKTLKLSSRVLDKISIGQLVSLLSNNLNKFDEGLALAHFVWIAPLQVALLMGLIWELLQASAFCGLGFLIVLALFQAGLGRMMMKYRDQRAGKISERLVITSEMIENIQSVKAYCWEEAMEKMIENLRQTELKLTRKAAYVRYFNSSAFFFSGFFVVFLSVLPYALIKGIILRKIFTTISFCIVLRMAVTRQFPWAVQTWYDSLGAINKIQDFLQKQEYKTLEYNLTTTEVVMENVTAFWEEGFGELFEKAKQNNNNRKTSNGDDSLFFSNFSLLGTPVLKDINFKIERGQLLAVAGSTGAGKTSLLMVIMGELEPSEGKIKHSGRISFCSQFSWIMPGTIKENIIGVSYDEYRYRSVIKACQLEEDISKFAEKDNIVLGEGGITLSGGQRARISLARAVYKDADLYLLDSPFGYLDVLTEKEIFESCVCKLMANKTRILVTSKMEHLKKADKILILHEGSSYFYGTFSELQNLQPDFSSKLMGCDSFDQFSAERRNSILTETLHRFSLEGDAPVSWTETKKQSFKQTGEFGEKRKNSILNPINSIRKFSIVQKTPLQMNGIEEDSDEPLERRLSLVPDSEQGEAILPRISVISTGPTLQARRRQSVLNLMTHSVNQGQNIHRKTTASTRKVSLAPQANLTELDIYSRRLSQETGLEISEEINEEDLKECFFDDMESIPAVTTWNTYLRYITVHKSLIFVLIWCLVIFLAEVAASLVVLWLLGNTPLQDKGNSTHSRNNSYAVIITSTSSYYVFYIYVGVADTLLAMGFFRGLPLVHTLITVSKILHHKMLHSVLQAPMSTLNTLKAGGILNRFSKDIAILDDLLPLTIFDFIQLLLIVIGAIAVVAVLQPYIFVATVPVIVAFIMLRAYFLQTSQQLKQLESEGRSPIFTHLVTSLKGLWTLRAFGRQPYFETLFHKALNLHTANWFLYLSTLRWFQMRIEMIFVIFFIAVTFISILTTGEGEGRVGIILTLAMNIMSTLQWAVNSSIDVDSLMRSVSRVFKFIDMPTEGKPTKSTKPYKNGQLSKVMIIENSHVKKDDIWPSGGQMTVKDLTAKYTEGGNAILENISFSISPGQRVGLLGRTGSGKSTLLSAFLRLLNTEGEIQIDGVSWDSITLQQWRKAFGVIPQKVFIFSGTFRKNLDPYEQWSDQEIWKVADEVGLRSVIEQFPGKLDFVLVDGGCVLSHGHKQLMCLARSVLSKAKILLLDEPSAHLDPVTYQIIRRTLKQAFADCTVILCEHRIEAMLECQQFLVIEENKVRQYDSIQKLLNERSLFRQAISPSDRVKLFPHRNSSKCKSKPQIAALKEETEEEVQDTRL
T1 sequence (P13569 with tags, fused parts or gaps DEL508-508): as above

SMILES	MTECC24 CFHBEC- Amax % (delF508-CFTR) [%]	EC50 (delF508-CFTR) [nM]	EC50 [1] [nM]	Emax [1] [%]
Cc1ccccc1-c1nc(NS(=O)(=O)c2cccc(N[C@H]3COCC[C@H]3O)n2)ccc1C(F)(F)F (single isomer, unassigned) [Example 282]	69.6	2.4	1880	
Cc1ccccc1-c1nc(NS(=O)(=O)c2cccc(O[C@@H]3COC[C@]3(C)O)n2)ccc1C(F)(F)F (single isomer, unassigned) [Example 294]	81.9	11	2360	641
Cc1ccccc1-c1nc(NS(=O)(=O)c2cccc(O[C@@H]3COC[C@@]3(C)O)n2)ccc1C(F)(F)F (single isomer, unassigned) [Example 295]	68.7	26.1	2030	468
Cc1cccc(C)c1-c1nc(NS(=O)(=O)c2cccc(N)n2)ccc1Br [Example 3, 6-amino-N-(5-bromo-6-(2,6-dimethylphenyl)pyridin-2-yl)pyridine-2-sulfonamide]	60.3	1.9	1440	688
Cc1cccc(C)c1-c1nc(NS(=O)(=O)c2ccnc(N)c2)ccc1Cl [Example 4, 2-amino-N-(5-chloro-6-(2,6-dimethylphenyl)pyridin-2-yl)pyridine-4-sulfonamide]	52.0	40.8	912	632
Cc1cccc(C)c1-c1cc(C(F)(F)F)cc(NS(=O)(=O)c2cccc(N)n2)n1 [Example 5, 6-amino-N-(6-(2,6-dimethylphenyl)-4-(trifluoromethyl)pyridin-2-yl)pyridine-2-sulfonamide]	97.56	3	1150	629
Cc1ccc(F)cc1-c1nc(NS(=O)(=O)c2cccc(N)n2)ccc1Cl [Example 6, 6-amino-N-(5-chloro-6-(5-fluoro-2-methylphenyl)pyridin-2-yl)pyridine-2-sulfonamide]	61.0	13.1	1510	612
Cc1cccc(C)c1-c1cc(Cl)cc(NS(=O)(=O)c2cccc(N)n2)n1 [Example 10, 6-amino-N-(4-chloro-6-(2,6-dimethylphenyl)pyridin-2-yl)pyridine-2-sulfonamide]	87.0	5.8	1530	592
Cc1cccc(C)c1-c1nc(NS(=O)(=O)c2cccc(N)n2)ccc1Cl [Example 11, 6-amino-N-(5-chloro-6-(2,6-dimethylphenyl)pyridin-2-yl)pyridine-2-sulfonamide]	94.3	13.6	1350	579
Cc1cccc(C)c1-c1nc(NS(=O)(=O)c2ccnc(N)c2)ccc1C(F)(F)F [Example 25, 2-amino-N-(6-(2,6-dimethylphenyl)-5-(trifluoromethyl)pyridin-2-yl)pyridine-4-sulfonamide]	94.2	14.5	1060	482

Second part, the molecule after the results:

MTECC24 CFHBEC- Amax % (delF508-CFTR) [%]	EC50 (delF508-CFTR) [nM]	EC50 [1] [nM]	Emax [1] [%]	SMILES
54.3	30	3220	255	Cc1ccccc1-c1nc(NS(=O)(=O)c2cccc(O[C@@H]3COC[C@@H]3O)n2)ccc1C(F)(F)F (single isomer, unassigned) [Example 296]
78.9	4	1780	867	Cc1ccc(F)cc1-c1nc(NS(=O)(=O)c2cccc(N)n2)ccc1C(F)(F)F [Example 1, 6-amino-N-(6-(5-fluoro-2-methylphenyl)-5-(trifluoromethyl)pyridin-2-yl)pyridine-2-sulfonamide]
75.5	8	967	724	Cc1cccc(C)c1-c1nc(NS(=O)(=O)c2cccc(N)n2)ccc1C(F)(F)F [Example 2, 6-amino-N-(6-(2,6-dimethylphenyl)-5-(trifluoromethyl)pyridin-2-yl)pyridine-2-sulfonamide]
66.8	2.7	1630	610	Cc1c(F)cccc1-c1nc(NS(=O)(=O)c2cccc(N)n2)ccc1C(F)(F)F [Example 7, 6-amino-N-(6-(3-fluoro-2-methylphenyl)-5-(trifluoromethyl)pyridin-2-yl)pyridine-2-sulfonamide]
85.2	9.7	1320	555	Cc1c(F)cccc1-c1nc(NS(=O)(=O)c2cccc(N)n2)ccc1Cl [Example 12, 6-amino-N-(5-chloro-6-(3-fluoro-2-methylphenyl)pyridin-2-yl)pyridine-2-sulfonamide]
100.1	24	1310	536	Cc1cccc(Cl)c1-c1nc(NS(=O)(=O)c2cccc(N)n2)ccc1Cl [Example 13, 6-amino-N-(5-chloro-6-(2-chloro-6-methylphenyl)pyridin-2-yl)pyridine-2-sulfonamide]
69.5	5.1	2090	510	Nc1cccc(S(=O)(=O)Nc2ccc(C(F)(F)F)c(-c3ccccc3Cl)n2)n1 [Example 17, 6-amino-N-(6-(2-chlorophenyl)-5-(trifluoromethyl)pyridin-2-yl)pyridine-2-sulfonamide]
65.5	7.9	1890	505	Nc1cccc(S(=O)(=O)Nc2ccc(C(F)(F)F)c(-c3ccccc3C(F)(F)F)n2)n1 [Example 18, 6-amino-N-(5-(trifluoromethyl)-6-(2-(trifluoromethyl)phenyl)pyridin-2-yl)pyridine-2-sulfonamide]
77.1	1.6	1380	429	Nc1cccc(S(=O)(=O)Nc2ccc(C(F)(F)F)c(-c3ccccc3C3CC3)n2)n1 [Example 28]
58.2	11.6	2520	400	Cc1c(-c2nc(NS(=O)(=O)c3cccc(N)n3)ccc2Cl)cccc1C(F)(F)F [Example 34, 6-amino-N-(5-chloro-6-(2-methyl-3-(trifluoromethyl)phenyl)pyridin-2-yl)pyridine-2-sulfonamide]
67.6	25.9	2100	390	Cc1ccccc1-c1nc(NS(=O)(=O)c2ccc(C)c(N)n2)ccc1C(F)(F)F [Example 36, 6-amino-5-methyl-N-(6-(o-tolyl)-5-(trifluoromethyl)pyridin-2-yl)pyridine-2-sulfonamide]
